Experimental data as given in ChEMBL document CHEMBL1201862, “PubChem BioAssay data set” (2004).
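Results reflect a 48-hour exposure of cells in 96-well plates to compound at five concentrations. At the GI50, growth is halved.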 The source made the active and inactive calls. No stated cut-off is given here; in the data, active = GI50 up to about 1.1 µM and inactive = higher.

Experiments:
Assay in all cases: NCI anticancer screen, dose series, 48 h
NCI-H23 = tested on: NCI-H23
MDA-N = tested on: MDA-N
OVCAR-8 = tested on: OVCAR-8
SF-295 = tested on: SF-295
CAKI-1 = tested on: CAKI-1
A498 = tested on: A498
ACHN = tested on: ACHN
SK-MEL-2 = tested on: SK-MEL-2
UACC-257 = tested on: UACC-257
SF-539 = tested on: SF-539
LOX IMVI = tested on: LOX IMVI
OVCAR-5 = tested on: OVCAR-5
NCI-H460 = tested on: NCI-H460
NCI/ADR-RES = tested on: NCI/ADR-RES
SNB-19 = tested on: SNB-19
Hs-578T = tested on: Hs-578T
Malme-3M = tested on: Malme-3M
RXF 393 = tested on: RXF 393
IGROV-1 = tested on: IGROV-1
MOLT-4 = tested on: MOLT-4
MDA-MB-435 = tested on: MDA-MB-435
SNB-75 = tested on: SNB-75
HT-29 = tested on: HT-29
SF-268 = tested on: SF-268
SW-620 = tested on: SW-620
HCT-15 = tested on: HCT-15
K562 = tested on: K562
HCC 2998 = tested on: HCC 2998
TK-10 = tested on: TK-10
HCT-116 = tested on: HCT-116
SK-MEL-28 = tested on: SK-MEL-28
SR = tested on: SR
OVCAR-3 = tested on: OVCAR-3
OVCAR-4 = tested on: OVCAR-4
PC-3 = tested on: PC-3
NCI-H522 = tested on: NCI-H522
SK-OV-3 = tested on: SK-OV-3
T47D = tested on: T47D
UO-31 = tested on: UO-31
RPMI-8226 = tested on: RPMI-8226
786-0 = tested on: 786-0
HOP-92 = tested on: HOP-92
EKVX = tested on: EKVX
U-251 = tested on: U-251
MCF7 = tested on: MCF7
A549 = tested on: A549
HOP-62 = tested on: HOP-62
HL-60 = tested on: HL-60
SK-MEL-5 = tested on: SK-MEL-5
M14 = tested on: M14
MDA-MB-231 = tested on: MDA-MB-231
DU-145 = tested on: DU-145
CCRF-CEM = tested on: CCRF-CEM
NCI-H226 = tested on: NCI-H226
KM12 = tested on: KM12
SN12C = tested on: SN12C
UACC-62 = tested on: UACC-62
COLO 205 = tested on: COLO 205

Measured: GI50

COC(=O)c1ccc2c(c1)CC1(C2)Cc2cc3c(cc2C1)CCC3
inactive: NCI-H23 > 100 µM | MDA-N > 100 µM | OVCAR-8 > 100 µM | SF-295 > 100 µM | CAKI-1 > 100 µM | A498 > 100 µM | ACHN > 100 µM | SK-MEL-2 98.2 µM | UACC-257 > 100 µM | SF-539 > 100 µM | LOX IMVI > 100 µM | OVCAR-5 > 100 µM | NCI-H460 > 100 µM | NCI/ADR-RES > 100 µM | SNB-19 > 100 µM | Hs-578T > 100 µM | Malme-3M 79.6 µM | RXF 393 > 100 µM | IGROV-1 > 100 µM | MOLT-4 > 100 µM | MDA-MB-435 > 100 µM | SNB-75 > 100 µM | HT-29 > 100 µM | SF-268 > 100 µM | SW-620 > 100 µM | K562 > 100 µM | HCC 2998 > 100 µM | TK-10 > 100 µM | HCT-116 > 100 µM | SK-MEL-28 > 100 µM | SR > 100 µM | OVCAR-3 > 100 µM | OVCAR-4 > 100 µM | PC-3 > 100 µM | NCI-H522 > 100 µM | SK-OV-3 > 100 µM | T47D > 100 µM | UO-31 > 100 µM | RPMI-8226 > 100 µM | 786-0 > 100 µM | HOP-92 > 100 µM | EKVX > 100 µM | U-251 49.3 µM | MCF7 > 100 µM | A549 > 100 µM | HOP-62 > 100 µM | HL-60 > 100 µM | SK-MEL-5 > 100 µM | M14 > 100 µM | MDA-MB-231 > 100 µM | DU-145 > 100 µM | CCRF-CEM > 100 µM
> 100 µM: HCT-15

N#Cc1nc(C#N)c(NC(=O)c2ccccc2C(=O)O)[nH]1
inactive: NCI-H23 > 100 µM | MDA-N > 100 µM | OVCAR-8 > 100 µM | SF-295 > 100 µM | NCI-H226 > 100 µM | CAKI-1 > 100 µM | A498 > 100 µM | ACHN > 100 µM | SK-MEL-2 > 100 µM | UACC-257 > 100 µM | SF-539 > 100 µM | LOX IMVI > 100 µM | OVCAR-5 > 100 µM | NCI/ADR-RES > 100 µM | SNB-19 > 100 µM | Hs-578T > 100 µM | Malme-3M > 100 µM | IGROV-1 > 100 µM | MOLT-4 > 100 µM | MDA-MB-435 > 100 µM | SNB-75 > 100 µM | HT-29 > 100 µM | SF-268 > 100 µM | SW-620 > 100 µM | K562 > 100 µM | KM12 > 100 µM | TK-10 > 100 µM | HCT-116 > 100 µM | SK-MEL-28 > 100 µM | OVCAR-3 > 100 µM | PC-3 > 100 µM | NCI-H522 > 100 µM | SK-OV-3 > 100 µM | T47D > 100 µM | UO-31 > 100 µM | SN12C > 100 µM | RPMI-8226 > 100 µM | 786-0 > 100 µM | HOP-92 > 100 µM | EKVX > 100 µM | U-251 > 100 µM | MCF7 > 100 µM | A549 > 100 µM | HOP-62 > 100 µM | HL-60 > 100 µM | SK-MEL-5 > 100 µM | UACC-62 > 100 µM | M14 > 100 µM | COLO 205 > 100 µM | MDA-MB-231 > 100 µM | DU-145 > 100 µM | CCRF-CEM > 100 µM

O=S1(=O)c2ccccc2Oc2ccc(C(/C=N/O)=N/O)cc21
active: Malme-3M 0.132 µM | TK-10 0.155 µM
inactive: OVCAR-8 18.4 µM | SF-295 18.2 µM | NCI-H226 57.4 µM | CAKI-1 16.5 µM | ACHN 38.6 µM | SK-MEL-2 25.7 µM | SF-539 26 µM | LOX IMVI 19.8 µM | OVCAR-5 > 100 µM | NCI-H460 27.9 µM | NCI/ADR-RES 17.4 µM | RXF 393 15.5 µM | IGROV-1 29.2 µM | MOLT-4 27.5 µM | MDA-MB-435 17.5 µM | SNB-75 45.3 µM | HT-29 63.8 µM | SF-268 30.1 µM | K562 30.1 µM | KM12 22 µM | HCT-116 43.7 µM | SK-MEL-28 56.8 µM | OVCAR-3 12.3 µM | OVCAR-4 39.1 µM | PC-3 32.5 µM | NCI-H522 12.1 µM | SK-OV-3 39.6 µM | T47D 9.08 µM | UO-31 24 µM | SN12C 61.9 µM | RPMI-8226 19.1 µM | 786-0 46.1 µM | HOP-92 45.2 µM | EKVX 7.71 µM | U-251 41.2 µM | MCF7 26.5 µM | A549 65.5 µM | HOP-62 65.5 µM | HL-60 17.3 µM | UACC-62 71.3 µM | M14 37.3 µM | COLO 205 > 100 µM | MDA-MB-231 45.5 µM | DU-145 11.2 µM | CCRF-CEM 25.8 µM
41 µM: HCT-15
